The record followed here is patent publication US20260167637A1, “NLRP3 INFLAMMASOME INHIBITOR AND USE THEREOF” (TransThera Sciences (Nanjing), Inc., priority 2022, published 2026).

Like-named read-outs stand apart in the source and are kept apart here.

In data set [1] the target is T1, THP-1 cell NLRP3 (Homo sapiens, UniProt Q96P20).
T1 construct: endogenous in cells; host or cells: THP-1 cells, PMA-differentiated, stimulated with LPS and nigericin
Nature of the data set: Inhibitory activity against cell NLRP3 inflammasomes in THP-1 cells (LPS + nigericin, ELISA of supernatant). The data set is classed as cell-based. Conditions: PMA-differentiated THP-1 cells, LPS 500 ng/mL 3 h, compound 1 h, nigericin 30 min; human IL-10 (so in the source) in supernatant by ELISA. As for the experimental part: Experimental Example 1: Assay for Inhibitory Activity of Compounds Disclosed Herein Against Cell NLRP3 Inflammasomes
Test substances: The compounds of the present disclosure, prepared according to the methods described in the examples.
THP-1 is an immortalized human […] cell line.
Instrument: microplate reader (made by PE)
Assay Method: 1. THP-1 cells were cultured in 1640 complete medium (500 mL of 1640+56 mL of FBS+560 μL of 1000×P/S+2 μL of mercaptoethanol), and cells at passages 3-20 were used.
2. Culture plate coating: 100 μL of polylysine solution was added to a 96-well cell culture plate. After 30 min of incubation at 37° C., the solution was discarded, and the plate was washed with PBS twice for later use.
3. Induction of THP-1 differentiation: THP-1 cells were resuspended in an appropriate amount of complete medium containing 10 ng/mL PMA to form a cell suspension with a density of 5×10^5 cells/mL. The suspension was added to the 96-well plate at 100 μL/well, and the plate was incubated overnight in a 37° C. carbon dioxide cell incubator for 16 h.
4. Stimulation of THP-1: • a. Serum-free THP-1 culture medium containing LPS was added, with the final concentration being 500 ng/mL. The plate was incubated in a 37° C. carbon dioxide cell incubator for 3 h. • b. Mother liquors of the compounds to be tested with gradient concentrations were prepared with DMSO, added to the cells, and well mixed. Dilution was finally performed in a 1:1000 ratio. The plate was incubated in a 37° C. carbon dioxide cell incubator for 1 h. • c. Nigericin was added to each well, with the final concentration being […]. The plate was incubated in a carbon dioxide cell incubator at 37° C. for 30 min. • d. The medium in the wells was transferred to a new culture plate, and after 5 min of centrifugation at 3000 rpm, the supernatant was transferred to a new 96-well plate. • e. The content of human […] in the collected cell culture supernatant samples was determined with a commercial ELISA kit by following the instructions.
On the technique in general: ELISA stands for enzyme-linked immunosorbent assay.

The nature of data set [2]: Pharmacokinetic study in mice. The data set is classed as in vivo, female C57BL/6J mice. The conditions noted are these: female, C57BL/6J, mouse, plasma; for clearance: read-out: Cl—obs iv (clearance rate) (converted); for Vd: read-out: Vss iv (distribution volume); for bioavailability: po 10 mg/kg vs iv 5 mg/kg, read-out: F% (absolute bioavailability); for Tmax: median, read-out: Tmax po (time to peak plasma concentration); for Cmax: read-out: Cmax po (peak concentration). As to the method:
The compounds were prepared into solutions using a mixed vehicle composed of 5% dimethyl sulfoxide, 20% (30% solutol), and 75% normal saline. The compound solutions were intragastrically administered to female C57BL/6J mice at a dose of 10 mg/kg, and the blood collection time points were: 15 min, 30 min, 1 h, 2 h, 4 h, 6 h, 8 h, and 24 h.
The compounds were prepared into solutions using a mixed vehicle composed of 5% dimethyl sulfoxide, 20% (30% solutol), and 75% normal saline. The compound solutions were intravenously injected into female C57BL/6J mice at a dose of 5 mg/kg, and the blood collection time points were: 5 min, 15 min, 30 min, 1 h, 2 h, 4 h, 6 h, 8 h, and 24 h.
The samples to be tested were taken out from a −80° C. freezer, naturally thawed at room temperature, and then vortexed for 5 min.
Plasma samples of 10 μL from different individuals were accurately pipetted into 1.5 mL centrifuge tubes.
900 μL of a 100 ng/mL internal standard working solution (a solution of tolbutamide in acetonitrile) was added, and the mixture was well mixed.
After 5 min of vortexing, centrifugation was performed at 12,000 rpm for 5 min.
50 μL of the supernatant was accurately pipetted into a 96-well plate to which water was added in advance at 150 μL/well.
After 5 min of vortexing, LC-MS/MS analysis was performed.
The results of the test substance concentrations were output by Analyst 1.6.3 of AB Sciex.
Parameters such as mean, standard deviation, and coefficient of variation (excluding those output directly by Analyst 1.6.3) were calculated using Microsoft Excel. PK parameters were calculated using WinNonlin Phenoix 8.2 software NCA (Tmax was a median).

Data set [3] is described as follows: Stability in rat liver microsomes. The conditions noted are these: rat liver microsomes 0.5 mg protein/mL, 1 μM test substance, β-NADPH 1 mM, 37° C.; for half-life at 1 μM: read-out: Rat t1/2. It counts as in vitro ADME. As for the experimental part: (§1) Experimental Example 2: Evaluation of Stability of Compounds Disclosed Herein in Liver Microsomes
(§2) Composition of experimental incubation system:
(§3) An appropriate amount of the compound was precisely weighed out and dissolved in DMSO to prepare a 10.0 mM stock solution. The 10.0 mM stock solution was diluted with DMSO to 1.0 mM, and then diluted with phosphate buffer (containing 3 mM MgCl2) to prepare a 10 μM test substance working solution for later use (DMSO content in the reaction system: 0.1%).
(§4) An appropriate amount of β-NADPH was precisely weighed out and then prepared into a 5 mM β-NADPH working solution using phosphate buffer (containing 3 mM MgCl2) for later use.
(§5) (1) The liver microsomes (20 mg protein/mL) were taken out from a −80° C. freezer and pre-incubated on a 37° C. water bath thermostatic oscillator for 3 min to thaw for later use.
(§6) (2) A mixed solution of the incubation system (without β-NADPH) was prepared according to “composition of experimental incubation system” described above, and pre-incubated on a 37° C. water bath thermostatic oscillator for 2 min.
(§7) (3) Control group (without β-NADPH): 10 μL of phosphate buffer (containing 3 mM MgCl2) and 40 μL of the mixed solution of the incubation system in step (2) were taken and mixed, and the mixture was vortexed for 30 s and mixed well, resulting in a total reaction volume of 50 μL; the sample was duplicated. The mixture was placed on a 37° C. water bath thermostatic oscillator for incubation, and timing was started, with termination time points set at 0 min and 60 min.
(§8) (4) Sample group: 10 μL of the β-NADPH solution (5 mM) and 40 μL of the mixed solution in step (2) were taken and mixed, resulting in a total reaction volume of 50 μL; the mixture was vortexed for 30 s and mixed well; the sample was duplicated. The mixture was placed on a 37° C. water bath thermostatic oscillator for incubation, and timing was started, with termination time points set at 0 min, 5 min, 10 min, 20 min, 30 min, and 60 min.
(§9) (5) The mixture was vortexed for 5 min and then centrifuged at 4000 rpm for 10 min.
(§10) (6) 50 μL of the supernatant was taken and added to 150 μL of water, and the resulting mixture was vortexed and mixed well before LC/MS/MS analysis.
(§11) The half-life (t1/2) and clearance rate (CL) were calculated using the following first-order kinetic formula
(§12) Notes: k denotes the slope of the logarithm of the remaining amount of a compound vs. time, and Vd denotes apparent volume of distribution.
(Liver microsomes are a subcellular fraction often used to study metabolism.)

Data set [4] can be described thus: Stability in canine liver microsomes. The data set is classed as in vitro ADME. The conditions noted are these: canine liver microsomes 0.5 mg protein/mL, 1 μM test substance, β-NADPH 1 mM, 37° C.; for microsomal CLint at 1 μM / half-life at 1 μM: dog; for half-life at 1 μM: read-out: Canine t1/2. As to the method: as §1, §2, §3, §4, §5, §6, §7, §8, §9, §10, §11, §12

Where [5] appears, read: iv 5 mg/kg, read-out: AUClast iv (0-24 h).
[6] abbreviates: iv 5 mg/kg, read-out: tz1/2 iv (terminal half-life) (converted).
Where [7] appears, read: po 10 mg/kg, read-out: AUClast po (0-24 h).
Setting [8] is: po 10 mg/kg, read-out: tz1/2 po (terminal half-life) (converted).

T1 sequence (Q96P20 whole entry): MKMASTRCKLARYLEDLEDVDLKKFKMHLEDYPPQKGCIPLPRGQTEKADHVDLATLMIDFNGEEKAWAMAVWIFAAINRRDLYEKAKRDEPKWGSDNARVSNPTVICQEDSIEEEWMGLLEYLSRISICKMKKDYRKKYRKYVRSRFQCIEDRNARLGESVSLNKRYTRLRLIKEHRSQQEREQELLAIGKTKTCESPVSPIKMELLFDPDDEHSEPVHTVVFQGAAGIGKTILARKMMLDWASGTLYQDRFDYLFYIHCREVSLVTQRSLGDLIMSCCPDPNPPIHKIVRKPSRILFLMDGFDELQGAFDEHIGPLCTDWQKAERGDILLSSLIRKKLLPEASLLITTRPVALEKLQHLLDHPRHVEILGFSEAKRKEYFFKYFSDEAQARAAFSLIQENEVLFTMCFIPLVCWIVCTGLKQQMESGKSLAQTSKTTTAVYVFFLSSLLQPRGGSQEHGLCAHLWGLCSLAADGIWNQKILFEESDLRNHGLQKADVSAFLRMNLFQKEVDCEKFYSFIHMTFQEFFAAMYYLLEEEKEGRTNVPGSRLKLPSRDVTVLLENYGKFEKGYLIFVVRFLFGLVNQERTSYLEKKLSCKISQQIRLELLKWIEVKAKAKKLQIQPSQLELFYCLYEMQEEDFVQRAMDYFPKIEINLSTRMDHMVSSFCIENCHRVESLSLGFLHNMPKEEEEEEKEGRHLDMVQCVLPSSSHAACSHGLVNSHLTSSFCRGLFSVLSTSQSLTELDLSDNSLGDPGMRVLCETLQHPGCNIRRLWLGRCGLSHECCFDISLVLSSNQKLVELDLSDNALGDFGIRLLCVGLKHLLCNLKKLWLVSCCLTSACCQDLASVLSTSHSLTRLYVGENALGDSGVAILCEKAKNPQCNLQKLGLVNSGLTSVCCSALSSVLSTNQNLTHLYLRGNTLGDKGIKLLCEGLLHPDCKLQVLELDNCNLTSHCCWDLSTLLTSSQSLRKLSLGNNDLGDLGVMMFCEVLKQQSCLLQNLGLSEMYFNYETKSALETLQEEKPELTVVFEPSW

Consider `CC#Cc1ccc(-c2nnc(N[C@@H]3CCCN(C)C3)c(=O)n2C)c(O)c1` [Compound 27, (R)-3-(2-hydroxy-4-(prop-1-yn-1-yl)phenyl)-4-methyl-6-((1-methylpiperidin-3-yl)amino)-1,2,4-triazin-5(4H)-one], for which the 50% inhibitory concentration (IC50) in data set [1] is 5.2 nM. Also, in data set [2] (setting [5]), the AUC(0-t) was determined as 6830 ng·h/mL. Also, in data set [2] (iv 5 mg/kg), the clearance was 11.8 mL/min/kg and the Vd turned out to be 2.39 L/kg. Further, the half-life in data set [2] (setting [6]) was 9.55 h. For the same molecule, the bioavailability in data set [2] was found to be 77.7%. In data set [2] (po 10 mg/kg), the Tmax was found to be 0.25 h and the Cmax came to 5520 ng/mL. Also, in data set [2] (setting [7]), the AUC(0-t) is 10900 ng·h/mL. For the same molecule, the half-life in data set [2] (setting [8]) is 3.99 h. Also, in data set [3], the microsomal CLint at 1 μM was 6.2 µL/min/mg and the half-life at 1 μM is 3.73 h. The “Canine t1/2” value in data set [4] is on record as “→∞”.
With `[2H]C([2H])([2H])N1CCC[C@@H](Nc2cc(C)c(-c3ccc(C#C)cc3O)nn2)C1` [Compound 84, (R)-5-ethynyl-2-(4-methyl-6-((1-(methyl-d3)piperidin-3-yl)amino)pyridazin-3-yl)phenol], in data set [1], the IC50 was determined as 0.2 nM. The AUC(0-t) in data set [2] (setting [5]) was 5590 ng·h/mL. Also, in data set [2] (iv 5 mg/kg), the clearance was 14.8 mL/min/kg and the Vd came to 3.02 L/kg. In data set [2] (setting [6]), the half-life was 3.81 h. The bioavailability in data set [2] was determined as 92.7%. For the same molecule, in data set [2] (po 10 mg/kg), the Tmax came to 0.5 h and the Cmax was determined as 1910 ng/mL. In addition, the AUC(0-t) in data set [2] (setting [7]) was found to be 10400 ng·h/mL. For the same molecule, the half-life in data set [2] (setting [8]) was 3.1 h. Moreover, in data set [3], the microsomal CLint at 1 μM stood at 4 µL/min/mg and the half-life at 1 μM is 5.78 h. Also, in data set [4], the microsomal CLint at 1 μM turned out to be 4 µL/min/mg and the half-life at 1 μM worked out at 5.78 h.
As for `[2H]C([2H])([2H])N1CCC[C@@H](Nc2cc(C3CC3)c(-c3ccc(C#C)cc3O)nn2)C1` [Compound 85, (R)-2-(4-cyclopropyl-6-((1-(methyl-d3)piperidin-3-yl)amino)pyridazin-3-yl)-5-ethynylphenol], in data set [1], the IC50 was determined as 0.6 nM. Moreover, the AUC(0-t) in data set [2] (setting [5]) turned out to be 15100 ng·h/mL. In data set [2] (iv 5 mg/kg), the clearance was 5.32 mL/min/kg and the Vd came to 1.85 L/kg. Further, the half-life in data set [2] (setting [6]) is 5.55 h. For the same molecule, the bioavailability in data set [2] worked out at 94.4%. In data set [2] (po 10 mg/kg), the Tmax came out at 1 h and the Cmax was found to be 3540 ng/mL. Further, the AUC(0-t) in data set [2] (setting [7]) was determined as 29100 ng·h/mL. Besides, the half-life in data set [2] (setting [8]) was 4.26 h. In addition, in data set [3], the microsomal CLint at 1 μM is 4.6 µL/min/mg and the half-life at 1 μM is 5.02 h. Further, in data set [4], the microsomal CLint at 1 μM is 5.2 µL/min/mg and the half-life at 1 μM came out at 4.45 h.
Take `C#Cc1ccc(-c2nnc(N[C@@H]3CCCN(CCO)C3)nc2C)c(O)c1` [Compound 99, (R)-5-ethynyl-2-(3-((1-(2-hydroxyethyl)piperidin-3-yl)amino)-5-methyl-1,2,4-triazin-6-yl)phenol]: in data set [1], the IC50 came out at 0.7 nM. The figures for the microsomal CLint at 1 μM in data set [3] and in data set [4] were 3.2 µL/min/mg and 6.6 µL/min/mg, respectively. The half-life at 1 μM in data set [3] was 7.22 h; in data set [4] it was 3.5 h.
In the case of `C#Cc1ccc(-c2nnc(N[C@@H]3CCCN(C)C3)cc2C(F)(F)F)c(O)c1` [Compound 114, (R)-5-Ethynyl-2-(4-trifluoromethyl-6-((1-methylpiperidin-3-yl)amino)pyridazin-3-yl)phenol], in data set [1], the IC50 stood at 1.3 nM. Also, in data set [3], the microsomal CLint at 1 μM came out at 0.4 µL/min/mg and the half-life at 1 μM worked out at 57.8 h. In data set [4], the microsomal CLint at 1 μM came to 1 µL/min/mg and the half-life at 1 μM came to 23.1 h.
On the same counts, the results for `C#Cc1ccc(-c2nnc(N[C@@H]3CCCN(C)C3)cc2C(F)F)c(O)c1` [Compound 115, (R)-2-(4-Difluoromethyl-6-((1-methylpiperidin-3-yl)amino)pyridazin-3-yl)-5-ethynylphenol] are 0.3 nM, 20.2 µL/min/mg, 1.14 h, 3.6 µL/min/mg and 6.42 h.
For `C#Cc1ccc(-c2nnc(N[C@@H]3CCCNC3)cc2C2CC2)c(O)c1` [Compound 149, (R)-2-(4-cyclopropyl-6-(piperidin-3-ylamino)pyridazin-3-yl)-5-ethynylphenol], the IC50 in data set [1] is 0.5 nM. For the same molecule, the “Rat t1/2” value in data set [3] was “→∞”. In addition, the “Canine t1/2” value in data set [4] is on record as “→∞”.

The IC50 is the concentration at which inhibition is half-maximal. As a reminder, the clearance is a measure of how efficiently the substance is removed, as volume per time. As usually defined, the bioavailability is dose-corrected exposure relative to a reference, in per cent. What is called microsomal CLint is a measure of how fast metabolising enzymes remove a compound, apart from limits set by blood flow. Read a high microsomal CLint as rapid turnover.
